This passage reports IC50 and inhibition results from ChEMBL document CHEMBL1133405, “Design and synthesis of functionalized glycomers as non-peptidic ligands for SH2 binding and as inhibitors of A-431 human epidermoid and HT-29 colon carcinoma cell lines” (Bioorg Med Chem Lett, 2000).

What is called IC50 is the point on the concentration scale where inhibition reaches its midpoint. A higher IC50 goes with weaker potency. The inhibition is how much of the control response was suppressed.

One assay deals with A-431. The assay can be described thus: Cytotoxicity measured for the growth inhibition of A-431 Human epidermoid carcinoma cell line. The assay is classed as functional, cell-based.
A further assay deals with HT-29. The assay can be described thus: Cytotoxicity of compound was measured for the growth inhibition of HT-29 human colon carcinoma cell line. The assay is classed as functional, cell-based.
For assay [1], the target named is Growth factor receptor-bound protein 2 (Homo sapiens) (UniProt P62993). The assay can be described thus: Compound was evaluated for the inhibitory activity against Growth factor receptor bound protein 2 SH2 at a concentration of 100 uM.
Chain of Growth factor receptor-bound protein 2 (Homo sapiens) (P62993 whole entry, looked up): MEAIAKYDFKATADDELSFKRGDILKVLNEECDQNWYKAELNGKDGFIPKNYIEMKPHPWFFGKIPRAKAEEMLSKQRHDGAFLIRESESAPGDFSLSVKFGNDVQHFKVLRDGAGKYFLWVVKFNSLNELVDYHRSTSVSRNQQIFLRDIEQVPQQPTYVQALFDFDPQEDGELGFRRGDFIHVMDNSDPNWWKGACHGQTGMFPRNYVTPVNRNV

For the compound `C=CCO[C@H]1[C@H](O)[C@H](COS(=O)(=O)c2cccc(C(F)(F)F)c2)O[C@@H](Oc2ccc(I)cc2)[C@H]1OC(=O)c1ccccc1`, the half-maximal inhibitory concentration (IC50) in the assay with A-431 was found to be 7 µM; in the assay on HT-29 it was 7.5 µM.

As for `CCCO[C@H]1[C@H](O)[C@H](COS(=O)(=O)c2ccc3ccccc3c2)O[C@@H](Oc2ccc(OP(=O)(O)O)cc2)[C@H]1OC(C)=O` [GLYCOMER], the IC50 in the assay with A-431 and with HT-29 was above 50 µM each time.

Turning to `C=CCO[C@H]1[C@H](O)[C@H](COS(=O)(=O)c2cccc(C(F)(F)F)c2)O[C@@H](Oc2ccc(I)cc2)[C@H]1OC(=O)Cc1ccccc1`, the half-inhibitory concentration (IC50) in the assay with A-431 worked out at 5.15 µM; with HT-29, 4.95 µM.

With `C=CCO[C@@H]1[C@H](O)[C@H](Oc2ccc(I)cc2)O[C@@H](COC(=O)c2ccccc2)[C@H]1O`, the IC50 in the assay with A-431 and with HT-29 was above 50 µM each time.

In the assay on A-431, `C=CCO[C@H]1[C@H](O)[C@H](COS(=O)(=O)c2ccc(Cl)cc2)O[C@@H](Oc2ccc(I)cc2)[C@H]1OC(C)=O` came in with an IC50 of 9.77 µM.

Consider `O=C(Nc1ccccc1)OCCO[C@@H]1[C@H](O)[C@H](Oc2ccc(I)cc2)O[C@@H](COS(=O)(=O)c2ccc3ccccc3c2)[C@H]1O`, for which the IC50 in the assay with A-431 was 5.1 µM; in the assay with HT-29, 3.67 µM.

On to `C=CCO[C@@H]1[C@H](O)[C@H](Oc2ccc(I)cc2)O[C@@H](COCc2ccc(OC)cc2)[C@H]1O`, for which the figures for the half-maximal inhibitory concentration (IC50) in the assay with A-431 and with HT-29 were 10.6 µM and 19.7 µM, respectively.

In turn, `C=CCO[C@@H]1[C@H](O)[C@H](Oc2ccc(I)cc2)O[C@@H](COS(=O)(=O)c2ccc3ccccc3c2)[C@H]1O` gave an IC50 with A-431 of 8.81 µM.

Consider `C=CCO[C@H]1[C@H](O)[C@H](COS(=O)(=O)c2ccc3ccccc3c2)O[C@@H](Oc2ccc(I)cc2)[C@H]1OC(C)=O`, for which the results for the IC50 in the assay with A-431 and with HT-29 were 5.2 µM and 11.6 µM, respectively.

For the compound `C=CCO[C@@H]1[C@H](O)[C@H](Oc2ccc(I)cc2)O[C@@H](COS(=O)(=O)c2cccc(C(F)(F)F)c2)[C@H]1O`, the figures for the IC50 with A-431 and in the assay on HT-29 were 36.8 µM and 35.5 µM, respectively.

For the compound `C=CCO[C@H]1[C@@H](O)[C@H](COS(=O)(=O)c2cccc(C(F)(F)F)c2)O[C@@H](Oc2ccc(I)cc2)[C@H]1OC(=O)C(C)C`, the IC50 with A-431 was found to be 3.3 µM; in the assay on HT-29, 4.2 µM. The compound further yielded an inhibition in assay [1] of 30%.

Turning to `O=C(CCc1ccccc1)O[C@@H]1[C@H](Oc2ccc(I)cc2)O[C@@H](COS(=O)(=O)c2cccc(C(F)(F)F)c2)[C@@H](O)[C@@H]1OCCOC(=O)Nc1ccccc1`, the 50% inhibitory concentration (IC50) in the assay with A-431 stood at 4.52 µM; with HT-29, 7.15 µM. In assay [1], this compound had an inhibition of 30%.

`NC(=O)OCCO[C@@H]1[C@H](O)[C@H](Oc2ccc(I)cc2)O[C@@H](COS(=O)(=O)c2ccc3ccccc3c2)[C@H]1O`: the IC50 in the assay with A-431 was found to be 9.1 µM; in the assay with HT-29, 23.1 µM.

In the case of `C=CCO[C@@H]1[C@H](O)[C@H](Oc2ccc(I)cc2)O[C@@H](COC(=O)c2ccc(Cl)cc2)[C@H]1O`, the IC50 turned out to be 20.5 µM with A-431 and 25.2 µM in the assay on HT-29.

With `CCCO[C@H]1[C@H](O)[C@H](COS(=O)(=O)c2cccc(C(F)(F)F)c2)O[C@@H](Oc2ccc(OP(=O)(O)O)cc2)[C@H]1OC(C)=O` [GLYCOMER], the values for the IC50 in the assay with A-431 and with HT-29 were 38.8 µM and 35.5 µM, respectively.

Regarding `C=CCO[C@H]1[C@H](O)[C@H](COS(=O)(=O)c2cccc(C(F)(F)F)c2)O[C@@H](Oc2ccc(I)cc2)[C@H]1OC(=O)CC`, the half-inhibitory concentration (IC50) in the assay on A-431 came out at 2.17 µM; in the assay with HT-29 it was 4.65 µM.

Take `C=CCO[C@H]1[C@H](O)[C@H](COS(=O)(=O)c2cccc(C(F)(F)F)c2)O[C@@H](Oc2ccc(I)cc2)[C@H]1OC(=O)CCc1ccccc1`: the IC50 with A-431 came out at 2 µM; with HT-29 it was 3 µM.

`C=CCO[C@H]1[C@H](O)[C@H](COS(=O)(=O)c2cccc(C(F)(F)F)c2)O[C@H](Oc2ccc(I)cc2)[C@@H]1OC(=O)CCC`: the concentration for half-maximal inhibition (IC50) with A-431 amounted to 2.6 µM; with HT-29, 4 µM.

Take `C=CCO[C@H]1[C@H](O)[C@H](COS(=O)(=O)c2cccs2)O[C@@H](Oc2ccc(I)cc2)[C@H]1OC(C)=O`: the half-maximal inhibitory concentration (IC50) with A-431 is 12.8 µM. For the same compound, the inhibition in assay [1] worked out at 30%.

`C=CCO[C@H]1[C@H](O)[C@H](COS(=O)(=O)c2cccc(C(F)(F)F)c2)O[C@@H](Oc2ccc(I)cc2)[C@H]1OC(C)=O`: the figures for the IC50 in the assay on A-431 and in the assay with HT-29 were 6.1 µM and 23.1 µM, respectively.

As for `C=CCO[C@@H]1[C@H](O)[C@H](Oc2ccc(I)cc2)O[C@@H](COC(=O)c2ccc(OC)cc2)[C@H]1O`, the IC50 in the assay on A-431 was determined as 24.6 µM; with HT-29 it was 55.1 µM.

With `C=CCO[C@@H]1[C@H](O)[C@H](Oc2ccc(I)cc2)O[C@@H](COC(=O)c2ccc3ccccc3c2)[C@H]1O`, the IC50 in the assay on A-431 and with HT-29 was above 50 µM throughout.
